Consider 63 compounds from patent US7429660B2, “ATM inhibitors” (Kudos Pharmaceuticals Limited, priority 2003, dated 2008).

Bounds are passed on as bounds.

This experiment deals with T1, ATM protein immunoprecipitated from HeLa cell nuclear extract (Homo sapiens, UniProt Q13315).
T1 construct: ATM protein was immunoprecipitated from HeLa cell nuclear extract; endogenous in cells; host or cells: HeLa cell nuclear extract (immunoprecipitated with rabbit polyclonal anti-ATM antiserum)
T1 sequence (Q13315 whole entry): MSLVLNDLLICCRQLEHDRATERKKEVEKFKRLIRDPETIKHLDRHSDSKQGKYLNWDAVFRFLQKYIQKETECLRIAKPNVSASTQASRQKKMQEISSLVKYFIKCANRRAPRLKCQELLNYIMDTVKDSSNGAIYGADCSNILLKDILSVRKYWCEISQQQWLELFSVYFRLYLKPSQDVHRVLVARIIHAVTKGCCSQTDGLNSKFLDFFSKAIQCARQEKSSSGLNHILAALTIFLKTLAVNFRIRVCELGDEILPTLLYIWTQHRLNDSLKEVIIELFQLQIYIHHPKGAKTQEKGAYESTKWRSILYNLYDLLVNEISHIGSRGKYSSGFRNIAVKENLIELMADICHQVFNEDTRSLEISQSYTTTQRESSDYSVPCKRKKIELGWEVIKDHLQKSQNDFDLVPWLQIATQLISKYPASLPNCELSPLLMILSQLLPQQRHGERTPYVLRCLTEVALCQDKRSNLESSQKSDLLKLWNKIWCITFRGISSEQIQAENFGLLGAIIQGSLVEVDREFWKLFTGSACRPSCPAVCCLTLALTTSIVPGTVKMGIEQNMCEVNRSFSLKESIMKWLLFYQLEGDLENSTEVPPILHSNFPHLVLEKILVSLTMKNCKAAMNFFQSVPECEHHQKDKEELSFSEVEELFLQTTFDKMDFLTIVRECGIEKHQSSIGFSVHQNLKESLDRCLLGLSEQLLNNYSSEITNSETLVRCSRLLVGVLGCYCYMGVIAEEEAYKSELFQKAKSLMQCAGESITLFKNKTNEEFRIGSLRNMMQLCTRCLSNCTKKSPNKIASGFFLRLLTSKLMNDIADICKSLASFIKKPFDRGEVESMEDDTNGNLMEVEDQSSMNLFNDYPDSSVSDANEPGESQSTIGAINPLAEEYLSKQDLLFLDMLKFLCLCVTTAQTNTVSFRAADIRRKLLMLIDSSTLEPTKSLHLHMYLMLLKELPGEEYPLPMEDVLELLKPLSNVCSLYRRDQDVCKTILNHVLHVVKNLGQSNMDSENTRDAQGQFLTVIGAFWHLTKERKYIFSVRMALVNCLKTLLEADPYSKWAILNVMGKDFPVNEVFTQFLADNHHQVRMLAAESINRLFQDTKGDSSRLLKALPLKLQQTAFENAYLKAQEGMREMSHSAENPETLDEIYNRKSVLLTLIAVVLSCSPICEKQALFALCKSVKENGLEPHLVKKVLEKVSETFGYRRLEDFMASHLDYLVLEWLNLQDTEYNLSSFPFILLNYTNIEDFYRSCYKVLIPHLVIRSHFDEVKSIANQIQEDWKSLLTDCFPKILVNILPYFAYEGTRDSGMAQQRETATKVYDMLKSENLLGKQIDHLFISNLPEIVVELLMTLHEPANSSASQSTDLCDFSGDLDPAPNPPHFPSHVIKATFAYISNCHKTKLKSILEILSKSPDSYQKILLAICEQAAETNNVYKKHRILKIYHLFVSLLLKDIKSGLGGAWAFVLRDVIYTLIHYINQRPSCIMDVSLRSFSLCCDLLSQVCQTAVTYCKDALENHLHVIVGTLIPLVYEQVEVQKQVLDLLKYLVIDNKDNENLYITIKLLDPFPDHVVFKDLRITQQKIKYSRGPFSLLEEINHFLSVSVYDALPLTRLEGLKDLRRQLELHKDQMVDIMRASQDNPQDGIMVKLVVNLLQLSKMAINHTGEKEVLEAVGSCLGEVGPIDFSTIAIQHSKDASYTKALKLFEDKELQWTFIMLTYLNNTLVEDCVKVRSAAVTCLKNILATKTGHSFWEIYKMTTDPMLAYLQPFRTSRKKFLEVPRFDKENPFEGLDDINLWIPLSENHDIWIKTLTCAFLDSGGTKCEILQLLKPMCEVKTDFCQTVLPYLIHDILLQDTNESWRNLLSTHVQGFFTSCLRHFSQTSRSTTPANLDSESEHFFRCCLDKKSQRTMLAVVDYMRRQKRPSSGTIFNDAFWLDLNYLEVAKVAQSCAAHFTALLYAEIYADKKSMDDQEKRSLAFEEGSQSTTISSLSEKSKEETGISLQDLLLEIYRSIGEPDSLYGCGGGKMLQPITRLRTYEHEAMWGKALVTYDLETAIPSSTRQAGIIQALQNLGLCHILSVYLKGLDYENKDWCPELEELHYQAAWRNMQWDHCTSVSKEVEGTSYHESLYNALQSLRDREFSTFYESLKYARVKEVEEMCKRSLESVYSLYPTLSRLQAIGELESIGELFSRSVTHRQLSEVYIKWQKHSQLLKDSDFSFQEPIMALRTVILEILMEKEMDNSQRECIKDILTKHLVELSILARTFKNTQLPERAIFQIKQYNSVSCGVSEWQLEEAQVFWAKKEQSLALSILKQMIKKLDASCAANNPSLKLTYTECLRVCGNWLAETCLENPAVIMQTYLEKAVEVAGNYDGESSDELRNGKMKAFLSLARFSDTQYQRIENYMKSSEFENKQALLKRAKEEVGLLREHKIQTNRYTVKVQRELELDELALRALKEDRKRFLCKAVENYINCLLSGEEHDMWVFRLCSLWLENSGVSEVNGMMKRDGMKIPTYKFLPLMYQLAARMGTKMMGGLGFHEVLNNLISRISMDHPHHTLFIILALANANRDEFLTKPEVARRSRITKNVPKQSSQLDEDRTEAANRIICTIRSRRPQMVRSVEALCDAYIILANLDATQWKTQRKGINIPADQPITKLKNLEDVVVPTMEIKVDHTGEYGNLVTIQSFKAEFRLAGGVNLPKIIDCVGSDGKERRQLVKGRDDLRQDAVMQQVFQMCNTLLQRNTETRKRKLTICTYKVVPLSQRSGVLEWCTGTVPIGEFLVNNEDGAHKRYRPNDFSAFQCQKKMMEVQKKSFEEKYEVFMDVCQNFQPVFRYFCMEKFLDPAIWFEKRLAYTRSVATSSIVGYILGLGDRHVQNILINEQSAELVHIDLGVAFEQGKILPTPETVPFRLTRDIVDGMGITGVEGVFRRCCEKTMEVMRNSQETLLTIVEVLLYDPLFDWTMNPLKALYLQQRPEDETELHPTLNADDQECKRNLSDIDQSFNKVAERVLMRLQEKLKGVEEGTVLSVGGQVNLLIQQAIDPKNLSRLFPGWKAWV
As to the kind of experiment: In vitro ATM inhibition assay (phosphorylation of GSTp53N66 on serine 15, chemiluminescent detection). Also: tested normally from 100 µM down to 0.1 nM. Format: biochemical. As to conditions: read-out: IC50 values (the concentration at which 50% of the enzyme activity is inhibited), ATM inhibition. In outline: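 Immunoprecipitated HeLa nuclear ATM (C-terminal anti-sera) with GSTp53N66 substrate in Hepes pH 7.4 buffer with MgCl2/MnCl2; inhibitor preincubated 10 min at 37 °C, then Na-ATP added, 1 h at 37 °C.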
For `O=C(Nc1ccc2c(c1)Sc1cccc(-c3cc(=O)cc(N4CCOCC4)o3)c1S2)c1ccc2nsnc2c1` [Compound 45], the IC50 is less than 200 nM.

For `O=C(Nc1ccc2c(c1)Sc1cccc(-c3cc(=O)cc(N4CCOCC4)o3)c1S2)C1CCC1` [Compound 34], the IC50 was less than 200 nM.

Take `CC1CN(CCCN2c3ccccc3Sc3c(-c4cc(=O)cc(N5CCOCC5)o4)cccc32)CC(C)O1` (stereo not drawn) [Compound 257]: the IC50 was less than 200 nM.

Consider `CN1CCCN(CC(=O)Nc2ccc3c(c2)Sc2cccc(-c4cc(=O)cc(N5CCOCC5)o4)c2S3)CC1` [Compound 60], for which the IC50 was less than 200 nM.

As to `CC(C)N1CCN(CC(=O)Nc2ccc3c(c2)Sc2cccc(-c4cc(=O)cc(N5CCOCC5)o4)c2S3)CC1` [Compound 80], the IC50 is less than 200 nM.

As for `O=C(CCSc1ncn[nH]1)Nc1ccc2c(c1)Sc1cccc(-c3cc(=O)cc(N4CCOCC4)o3)c1S2` [Compound 104], the IC50 is less than 200 nM.

Regarding `O=C(CN1CCN(CCO)CC1)Nc1ccc2c(c1)Cc1cccc(-c3cc(=O)cc(N4CCOCC4)o3)c1S2` [Compound 348], the IC50 is less than 200 nM.

Take `CCN(CC)CCCNCCCN1c2ccccc2Sc2c(-c3cc(=O)cc(N4CCOCC4)o3)cccc21` [Compound 277]: the IC50 is less than 200 nM.

With `O=C(CN1CCNCC1)Nc1ccc2c(c1)Sc1cccc(-c3cc(=O)cc(N4CCOCC4)o3)c1S2` [Compound 53], the IC50 was less than 200 nM.

For the compound `O=C(COc1ccc2c(c1)Cc1cccc(-c3cc(=O)cc(N4CCOCC4)o3)c1S2)N1CCCCCC1` [Compound 532], the IC50 was less than 200 nM.

As for `CC(=O)N1CCN(C(=O)c2ccc3c(c2)Sc2cccc(-c4cc(=O)cc(N5CCOCC5)o4)c2S3)CC1` [Compound 11], the IC50 was less than 200 nM.

Consider `O=c1cc(-c2cccc3c2Sc2ccccc2N3CCCNCCc2cnc[nH]2)oc(N2CCOCC2)c1` [Compound 271], for which the IC50 was less than 200 nM.

As to `O=C(COc1ccc2c(c1)Cc1cccc(-c3cc(=O)cc(N4CCOCC4)o3)c1S2)N1CCSCC1` [Compound 510], the IC50 is less than 200 nM.

With `CC(C)NC(=O)CN1CCN(C(=O)c2ccc3c(c2)Sc2cccc(-c4cc(=O)cc(N5CCOCC5)o4)c2S3)CC1` [Compound 14], the IC50 was less than 200 nM.

With `O=c1cc(-c2ccc(OCCN3CCCCCC3)c3c2Sc2ccccc2S3)oc(N2CCOCC2)c1` [Compound 148], the IC50 is less than 200 nM.

`CCN1CCN(CCC(=O)Nc2ccc3c(c2)Cc2cccc(-c4cc(=O)cc(N5CCOCC5)o4)c2S3)CC1` [Compound 352]: the IC50 is less than 200 nM.

With `O=C(CN1CCCCCC1)Nc1ccc2c(c1)Sc1cccc(-c3cc(=O)cc(N4CCOCC4)o3)c1S2` [Compound 62], the IC50 was less than 200 nM.

Take `O=c1cc(-c2ccc(OCCNN3CCOCC3)c3c2Sc2ccccc2S3)oc(N2CCOCC2)c1` [Compound 153]: the IC50 was less than 200 nM.

Take `O=c1cc(-c2cccc3c2Sc2ccc(OCCNCCO)cc2S3)oc(N2CCOCC2)c1` [Compound 367]: the IC50 was less than 200 nM.

For the compound `O=c1cc(-c2cccc3c2Sc2ccccc2N3CCCN(CCO)CCO)oc(N2CCOCC2)c1` [Compound 327], the IC50 was less than 200 nM.

In the case of `CC(C)N1CCN(C(=O)COc2ccc3c(c2)Sc2cccc(-c4cc(=O)cc(N5CCOCC5)o4)c2S3)CC1` [Compound 437], the IC50 was less than 200 nM.

In the case of `CC(C)(C)OC(=O)N1CCC(NCCCN2c3ccccc3Sc3c(-c4cc(=O)cc(N5CCOCC5)o4)cccc32)CC1` [Compound 311], the IC50 was less than 200 nM.

Turning to `O=C(COc1ccc2c(c1)Sc1cccc(-c3cc(=O)cc(N4CCOCC4)o3)c1S2)NC1CCC1` [Compound 405], the IC50 was less than 200 nM.

As for `O=c1cc(-c2cccc3c2Sc2ccc(S(=O)(=O)N4CCCNCC4)cc2C3)oc(N2CCOCC2)c1` [Compound 489], the IC50 was less than 200 nM.

On to `CC(=O)Nc1ccc2c(c1)Sc1cccc(-c3cc(=O)cc(N4CCOCC4)o3)c1S2` [Compound 22], for which the IC50 was less than 200 nM.

In the case of `O=C(CCN1CCN(c2ccc(F)cc2)CC1)Nc1ccc2c(c1)Sc1cccc(-c3cc(=O)cc(N4CCOCC4)o3)c1S2` [Compound 121], the IC50 is less than 200 nM.

Consider `O=C(c1ccc2c(c1)Sc1cccc(-c3cc(=O)cc(N4CCOCC4)o3)c1S2)N1CCNCC1` [Compound 19], for which the IC50 was less than 200 nM.

Turning to `CC(C)N(CCNCCCOc1ccc(-c2cc(=O)cc(N3CCOCC3)o2)c2c1Sc1ccccc1S2)C(C)C` [Compound 200], the IC50 was less than 200 nM.

As for `NC(=O)C1CCN(C(=O)COc2ccc3c(c2)Cc2cccc(-c4cc(=O)cc(N5CCOCC5)o4)c2S3)CC1` [Compound 509], the IC50 was less than 200 nM.

As to `O=C(c1ccc2c(c1)Sc1cccc(-c3cc(=O)cc(N4CCOCC4)o3)c1S2)N1CCN(c2ccncc2)CC1` [Compound 9], the IC50 was less than 200 nM.

On to `CN(C)CCN(C)CC(=O)Nc1ccc2c(c1)Sc1cccc(-c3cc(=O)cc(N4CCOCC4)o3)c1S2` [Compound 73], for which the IC50 is less than 200 nM.

Regarding `O=C(CNCCCN1CCOCC1)Nc1ccc2c(c1)Sc1cccc(-c3cc(=O)cc(N4CCOCC4)o3)c1S2` [Compound 63], the IC50 was less than 200 nM.

`CC(=O)N1CCN(CCOc2ccc3c(c2)Sc2cccc(-c4cc(=O)cc(N5CCOCC5)o4)c2S3)CC1` [Compound 378]: the IC50 was less than 200 nM.

Turning to `O=C(COc1ccc2c(c1)Sc1cccc(-c3cc(=O)cc(N4CCOCC4)o3)c1S2)NCc1ccncc1` [Compound 439], the IC50 is less than 200 nM.

On to `O=c1cc(-c2cccc3c2Sc2ccccc2N3CCCN2CCN(c3ccccn3)CC2)oc(N2CCOCC2)c1` [Compound 290], for which the IC50 was less than 200 nM.

On to `O=c1cc(-c2cccc3c2Sc2ccc(OCCNCC(F)(F)F)cc2S3)oc(N2CCOCC2)c1` [Compound 379], for which the IC50 is less than 200 nM.

In the case of `C[C@@H]1CN(C(=O)COc2ccc3c(c2)Sc2cccc(-c4cc(=O)cc(N5CCOCC5)o4)c2S3)C[C@H](C)O1` [Compound 433], the IC50 was less than 200 nM.

As to `O=C(c1ccc2c(c1)Sc1cccc(-c3cc(=O)cc(N4CCOCC4)o3)c1S2)N1CCN(c2ccccn2)CC1` [Compound 8], the IC50 was less than 200 nM.

Turning to `O=C(COc1ccc2c(c1)Sc1cccc(-c3cc(=O)cc(N4CCOCC4)o3)c1S2)N1CCCC(CO)C1` (stereo not drawn) [Compound 418], the IC50 was less than 200 nM.

Regarding `O=c1cc(-c2cccc3c2Sc2ccccc2N3CCCNCCN2CCN(Cc3ccccc3)CC2)oc(N2CCOCC2)c1` [Compound 274], the IC50 was less than 200 nM.

As for `O=C(Nc1ccc2c(c1)Sc1cccc(-c3cc(=O)cc(N4CCOCC4)o3)c1S2)c1cccs1` [Compound 32], the IC50 is less than 200 nM.

For the compound `O=C(CN1CCN(c2ncccn2)CC1)Nc1ccc2c(c1)Sc1cccc(-c3cc(=O)cc(N4CCOCC4)o3)c1S2` [Compound 84], the IC50 was less than 200 nM.

On to `COc1ccc(CNCCC(=O)Nc2ccc3c(c2)Sc2cccc(-c4cc(=O)cc(N5CCOCC5)o4)c2S3)cc1` [Compound 103], for which the IC50 was less than 200 nM.

As to `CCOC(=O)C1CCCN(CCCN2c3ccccc3Sc3c(-c4cc(=O)cc(N5CCOCC5)o4)cccc32)C1` (stereo not drawn) [Compound 315], the IC50 is less than 200 nM.

In the case of `COCCN(CCOC)C(=O)COc1ccc2c(c1)Sc1cccc(-c3cc(=O)cc(N4CCOCC4)o3)c1S2` [Compound 445], the IC50 was less than 200 nM.

Take `CN(C)CCN1CCN(CCCN2c3ccccc3Sc3c(-c4cc(=O)cc(N5CCOCC5)o4)cccc32)CC1` [Compound 304]: the IC50 was less than 200 nM.

As to `CCCNCCOc1ccc2c(c1)Cc1cccc(-c3cc(=O)cc(N4CCOCC4)o3)c1S2` [Compound 537], the IC50 was less than 200 nM.

As for `CC(=O)N1CCN(CCC(=O)Nc2ccc3c(c2)Sc2cccc(-c4cc(=O)cc(N5CCOCC5)o4)c2S3)CC1` [Compound 116], the IC50 is less than 200 nM.

For `O=C(COc1ccc2c(c1)Sc1cccc(-c3cc(=O)cc(N4CCOCC4)o3)c1S2)N1CCCCCC1` [Compound 446], the IC50 was less than 200 nM.

As to `O=C(CN1CCN(c2ccccn2)CC1)Nc1ccc2c(c1)Sc1cccc(-c3cc(=O)cc(N4CCOCC4)o3)c1S2` [Compound 82], the IC50 is less than 200 nM.

Take `CN1CCN(CCCN2c3ccccc3Sc3c(-c4cc(=O)cc(N5CCOCC5)o4)cccc32)CC1` [Compound 288]: the IC50 was less than 200 nM.

As for `O=C(CN1CCN(CCOCCO)CC1)Nc1ccc2c(c1)Sc1cccc(-c3cc(=O)cc(N4CCOCC4)o3)c1S2` [Compound 79], the IC50 is less than 200 nM.

For the compound `NC(=O)CNCCC(=O)Nc1ccc2c(c1)Sc1cccc(-c3cc(=O)cc(N4CCOCC4)o3)c1S2` [Compound 125], the IC50 is less than 200 nM.

As to `CCN1CCN(C(=O)COc2ccc3c(c2)Cc2cccc(-c4cc(=O)cc(N5CCOCC5)o4)c2S3)CC1` [Compound 524], the IC50 is less than 200 nM.

Take `O=C(CCN1CCCCCC1)Nc1ccc2c(c1)Sc1cccc(-c3cc(=O)cc(N4CCOCC4)o3)c1S2` [Compound 101]: the IC50 is less than 200 nM.

In the case of `O=C(CCNCCO)Nc1ccc2c(c1)Sc1cccc(-c3cc(=O)cc(N4CCOCC4)o3)c1S2` [Compound 96], the IC50 is less than 200 nM.

Regarding `O=C(CCN1CCN(c2ccccn2)CC1)Nc1ccc2c(c1)Sc1cccc(-c3cc(=O)cc(N4CCOCC4)o3)c1S2` [Compound 120], the IC50 was less than 200 nM.

Consider `CC(=O)N1CCN(CC(=O)Nc2ccc3c(c2)Cc2cccc(-c4cc(=O)cc(N5CCOCC5)o4)c2S3)CC1` [Compound 338], for which the IC50 was less than 200 nM.

Turning to `O=c1cc(-c2cccc3c2Sc2ccc(S(=O)(=O)N4CCCC4)cc2C3)oc(N2CCOCC2)c1` [Compound 468], the IC50 is less than 200 nM.

On to `O=C(CN1CCN(c2ccc(F)cc2)CC1)Nc1ccc2c(c1)Sc1cccc(-c3cc(=O)cc(N4CCOCC4)o3)c1S2` [Compound 83], for which the IC50 is less than 200 nM.

Consider `O=C(COc1ccc2c(c1)Sc1cccc(-c3cc(=O)cc(N4CCOCC4)o3)c1S2)Nc1cccnc1` [Compound 419], for which the IC50 is less than 200 nM.

`O=C(CCN1CCCN(CCO)CC1)Nc1ccc2c(c1)Sc1cccc(-c3cc(=O)cc(N4CCOCC4)o3)c1S2` [Compound 129]: the IC50 is less than 200 nM.

Turning to `COC(=O)C(=O)Nc1ccc2c(c1)Sc1cccc(-c3cc(=O)cc(N4CCOCC4)o3)c1S2` [Compound 36], the IC50 was less than 200 nM.
